Where two headings read alike, the source gives them in different places.
Key:
[1] = test system: Puccinia triticina; test: Wheat brown rust, whole-plant fungicidal activity (PUCCRT); assay type: in vivo, Puccinia triticina on wheat plants (variety 'Yuma'); details: 24 h, 1DP (1 day protectant), read-out: % Disease Control Rating PUCCRT
Protocol: Technical grades of materials were dissolved in acetone, which were then mixed with nine volumes of water (H2O) containing 110 ppm Triton X-100. The fungicide solutions were applied onto wheat seedlings using an automated booth sprayer to run-off. All sprayed plants were allowed to air dry prior to further handling. All fungicides were evaluated using the aforementioned method for their activity vs. all target diseases, unless stated otherwise.
Example B: Evaluation of Fungicidal Activity: Wheat Brown Rust (Puccinia triticina; Synonym: Puccinia recondita f sp. tritici; Bayer Code PUCCRT)
Wheat plants (variety ‘Yuma’) were grown from seed in a greenhouse in soil-less potting mix until the first leaf was fully emerged, with 7-10 seedlings per pot. These plants were inoculated with an aqueous spore suspension of Puccinia triticina after fungicide treatments. After inoculation, the plants were kept in a dark dew room with 100% relative humidity overnight to permit spores to germinate and infect the leaf. The plants were then transferred to a greenhouse for disease to develop. Fungicide formulation, application and disease assessment followed the procedures as described in Example A.

[2] = test system: Zymoseptoria tritici; test: Septoria leaf blotch of wheat, whole-plant fungicidal activity (SEPTTR); assay type: in vivo, Zymoseptoria tritici on wheat plants (variety 'Yuma'); details: read-out: % Disease Control Rating SEPTTR
Protocol: Example A: Evaluation of Fungicidal Activity: Septoria Leaf Blotch of Wheat (Zymoseptoria tritici; Bayer Code […]) Technical grades of materials were dissolved in acetone, which were then mixed with nine volumes of water (H2O) containing 110 ppm Triton X-100. The fungicide solutions were applied onto wheat seedlings using an automated booth sprayer to run-off. All sprayed plants were allowed to air dry prior to further handling. All fungicides were evaluated using the aforementioned method for their activity vs. all target diseases, unless stated otherwise. Wheat plants (variety 'Yuma') were grown from seed in a greenhouse in soil-less potting mix until the first leaf was fully emerged, with 7-10 seedlings per pot. These plants were inoculated with an aqueous spore suspension of Zymoseptoria tritici either 3 days prior to fungicide treatment (3 day curative; 3DC) or 1 day after fungicide treatment (1 day protectant; 1DP). After inoculation the plants were kept in 100% relative humidity for three days to permit spores to germinate and infect the leaf. The plants were then transferred to a greenhouse for disease to develop. When disease symptoms were fully expressed on the 1st leaves of untreated plants, infection levels were assessed on a scale of 0 to 100 percent disease severity. Percent disease control was calculated using the ratio of disease severity on treated plants relative to untreated plants.

[3] = test system: Phakopsora pachyrhizi; test: Asian soybean rust, whole-plant fungicidal activity (PHAKPA); assay type: in vivo; details: read-out: % Disease Control Rating PHAKPA
Protocol: Example C: Evaluation of Fungicidal Activity: Asian Soybean Rust (Phakopsora pachyrhizi; Bayer Code […]) Technical grades of materials were dissolved in acetone, which were then mixed with nine volumes of H2O containing 0.011% Tween-20. The fungicide solutions were applied onto soybean seedlings using an automated booth sprayer to run-off. All sprayed plants were allowed to air dry prior to further handling. Soybean plants (variety 'Williams 82') were grown in soil-less potting mix, with one plant per pot. Ten-day-old seedlings were used for testing. Plants were inoculated as described in Example A. Plants were incubated for 24 h in a dark dew room with 100% relative humidity then transferred to a growth room for disease to develop. Fungicide formulation and application were made as described in Example A. When disease symptoms were fully expressed, disease severity was assessed on the sprayed leaves on a scale of 0 to 100 percent. Percent disease control was calculated using the ratio of disease severity on treated plants relative to untreated plants.

[4] = test system: Rhynchosporium commune; test: Leaf blotch of barley, whole-plant fungicidal activity (RHYNSE); assay type: in vivo; details: 24 h, 1DP (1 day protectant), read-out: % Disease Control Rating RHYNSE
Protocol: Technical grades of materials were dissolved in acetone, which were then mixed with nine volumes of water (H2O) containing 110 ppm Triton X-100. The fungicide solutions were applied onto wheat seedlings using an automated booth sprayer to run-off. All sprayed plants were allowed to air dry prior to further handling. All fungicides were evaluated using the aforementioned method for their activity vs. all target diseases, unless stated otherwise. Example D: Evaluation of Fungicidal Activity: Leaf Blotch of Barley (Rhynchosporium commune; Bayer Code […]) Barley plants (variety 'Harrington') were grown from seed in a greenhouse in soil-less potting mix until the first leaf was fully emerged, with 7-10 seedlings per pot. These plants were inoculated with an aqueous spore suspension of Rhynchosporium commune after fungicide treatments. After inoculation, the plants were kept in a dark dew room with 100% relative humidity for two days to permit spores to germinate and infect the leaf. The plants were then transferred to a greenhouse for disease to develop. Fungicide formulation and application were made as described in Example A. Disease assessment was conducted as described in Example A.

SMILES	pest or weed control at 200 ppm [1] [%]	pest or weed control at 200 ppm ([2]; 24 h, 1DP (1 day protectant)) [%]	pest or weed control at 200 ppm ([2]; 72 h, 3DC (3 day curative)) [%]	pest or weed control at 200 ppm ([3]; 24 h, 1DP (1 day protectant)) [%]	pest or weed control at 200 ppm ([3]; 72 h, 3DC (3 day curative)) [%]	pest or weed control at 200 ppm [4] [%]
Cc1cc(C(=O)CC2CCCCC2)c(C)cc1/N=C/N(C)C [Compound 57]	> 85	50 to 85	< 20	> 85	> 85	< 20
CCN(/C=N/c1cc(C)c(C(=O)CC2CCCCC2)cc1C)CC [Compound 58]	> 85	50 to 85	< 20	> 85	> 85	< 20
Cc1cc(C(=O)CC2CCCCC2)c(C)cc1/N=C/N(C)C(C)C [Compound 59]	> 85	> 85	> 85	> 85	> 85	> 85
Cc1cc(C(=O)CC2CCCCC2)c(C)cc1/N=C/N(C)C1CC1 [Compound 60]	> 85	< 20	< 20	< 20	< 20	< 20
CCN(C)/C(S)=N/c1cc(C)c(C(=O)CC2CCCCC2)cc1C [Compound 61]	> 85	> 85	< 20	> 85	> 85	> 85
CCN(C)/C=N/c1cc(C)c(C(=O)Cc2ccc(C)cc2C)cc1C [Compound 62]	> 85	> 85	50 to 85	> 85	20 to 50	> 85
CCN(C)/C=N/c1cc(C)c(C(=O)Cc2ccc(C(F)(F)F)cc2)cc1C [Compound 63]	> 85	> 85	20 to 50	> 85	> 85	> 85
CCCc1ccc(CC(=O)c2cc(C)c(/N=C/N(C)CC)cc2C)cc1 [Compound 64]	> 85	50 to 85	< 20	> 85	> 85	> 85
CCN(C)/C=N/c1cc(C)c(C(=O)Cc2ccc(SC(F)(F)F)cc2)cc1C [Compound 65]	> 85	> 85	20 to 50	> 85	> 85	> 85
CCN(C)/C=N/c1cc(C)c(C(=O)Cc2ccc(C(C)C)cc2)cc1C [Compound 66]	> 85	> 85	< 20	> 85	> 85	> 85
CCN(C)/C=N/c1cc(C)c(C(=O)Cc2ccc(C(C)(C)C)cc2)cc1C [Compound 67]	> 85	> 85	< 20	> 85	> 85	> 85
CCN(C)/C=N/c1cc(C)c(C(=O)Cc2ccc(F)cc2)cc1C [Compound 68]	> 85	> 85	< 20	> 85	> 85	> 85
CCN(C)/C=N/c1cc(C)c(C(=O)Cc2ccc(Cl)cc2)cc1C [Compound 69]	> 85	50 to 85	50 to 85	> 85	> 85	50 to 85
CCc1cccc(CC(=O)c2cc(C)c(/N=C/N(C)CC)cc2C)c1 [Compound 70]	> 85	50 to 85	< 20	> 85	> 85	> 85
CCN(C)/C=N/c1cc(C)c(C(=O)Cc2ccc3c(c2)CCC3)cc1C [Compound 71]	> 85	20 to 50	< 20	> 85	> 85	> 85
CCN(C)/C=N/c1cc(OC)c(C(=O)CC2CCCCC2)cc1C [Compound 72]	> 85	< 20	< 20	> 85	> 85	< 20
Cc1cc(C(=O)CC2CCCC2)c(C)cc1/N=C/N(C)C [Compound 73, (E)-N′-(4-(2-cyclopentylacetyl)-2,5-dimethylphenyl)-N,N-dimethylformimidamide]	> 85	< 20	< 20	> 85	> 85	< 20
CCN(C)/C=N/c1cc(C)c(C(=O)CC2CCCC2)cc1OC [Compound 74]	> 85	< 20	< 20	> 85	> 85	50 to 85
CCN(C)/C=N/c1ccc(C(=O)CC2CCCC2)cc1C [Compound 75]	> 85	< 20	< 20	20 to 50	> 85	< 20
Cc1cc(C(=O)Cc2c(F)cc(F)cc2F)c(C)cc1/N=C/N(C)C [Compound 76]	> 85	< 20	< 20	> 85	–	< 20
CCN(/C=N/c1cc(C)c(C(=O)CC2CCCC2)cc1C)CC [Compound 77]	> 85	< 20	< 20	> 85	> 85	20 to 50
CCN(/C=N/c1cc(C)c(C(=O)Cc2c(F)cc(F)cc2F)cc1C)CC [Compound 78]	> 85	< 20	< 20	> 85	> 85	< 20
Cc1cc(C(=O)Cc2c(F)cc(F)cc2F)c(C)cc1/N=C/N(C)C(C)C [Compound 79]	> 85	< 20	< 20	> 85	–	50 to 85

Reference: patent US20240000075A1, “FUNGICIDAL ARYL AMIDINES” (CORTEVA AGRISCIENCE LLC, priority 2020, published 2024)
